Reference: paper PMC10746543, “Design principles for cyclin K molecular glue degraders” (Nature Chemical Biology, 2023)
Several values for one entry are separate records, joined by “and”; a condition that tells them apart may be missing. Equal values may be shown once. Read-outs that look alike come from different tables or passages of the source.

Columns and labels:
HEK293T cells = experiment: Drug sensitivity assay (CellTiter-Glo viability) with or without MLN4924 pretreatment; format: cell-based, human; conditions: Supplementary Table 2
In short: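 Viability of HEK293T–Cas9 cells was compared after 3-day drug treatment with or without 100 nM MLN4924 pretreatment (2 h, versus DMSO). Values are CellTiter-Glo signals relative to DMSO controls.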

CDK9–cyclin T = molecular target: T1, CDK9–cyclin T (Homo sapiens, UniProt P50750); experiment: Lanthascreen kinase binding assay, CDK9; conditions: for Lanthascreen TR-FRET signal (raw ratio), sheet CDK9: duplicates
T1 construct: purchased Thermo Fisher
Description: (§1) Lanthascreen experiments were performed using commercially available reagents (Thermo Fisher) and according to the manufacturer’s instructions.

CDK2–cyclin A = molecular target: T2, CDK2–cyclin A (Homo sapiens, UniProt P24941); experiment: Lanthascreen kinase binding assay, CDK2; conditions: for Lanthascreen signal, sheet CDK2: raw replicates
T2 construct: purchased Thermo Fisher
Description: as §1

cyclin K = experiment: Label-free quantitative mass spectrometry in MDA-MB-231 cells, cyclin K; format: cell-based, human
In short: (§2)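 MDA-MB-231 cells treated 5 h with 1 µM cyclin K degrader or DMSO. Lysates digested with LysC and trypsin, then analysed by label-free diaPASEF LC-MS on a TimsTOF Pro2 with directDIA search and MS1 precursor quantification. Protein abundances scaled and analysed with limma.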

CDK13 = molecular target: T3, CDK13 (Homo sapiens, UniProt Q14004+Q16531); experiment: Label-free quantitative mass spectrometry in MDA-MB-231 cells, CDK13; format: cell-based
T3 construct: endogenous in cells; host or cells: MDA-MB-231
In short: as §2

[1] = label-free quantitative MS, replicate values
[2] = normalised to DMSO = 1, replicate values

T1 sequence (P50750 whole entry): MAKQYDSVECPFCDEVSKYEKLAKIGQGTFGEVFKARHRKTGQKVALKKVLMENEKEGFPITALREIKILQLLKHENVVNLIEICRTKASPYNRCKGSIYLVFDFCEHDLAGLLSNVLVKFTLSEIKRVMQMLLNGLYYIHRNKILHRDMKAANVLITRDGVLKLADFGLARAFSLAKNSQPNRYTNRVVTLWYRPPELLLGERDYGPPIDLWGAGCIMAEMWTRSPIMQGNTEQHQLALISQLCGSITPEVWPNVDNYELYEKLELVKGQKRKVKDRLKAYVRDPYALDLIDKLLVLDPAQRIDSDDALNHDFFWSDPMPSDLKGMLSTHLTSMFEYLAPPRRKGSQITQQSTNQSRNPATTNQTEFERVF
T1 sequence (O60563 whole entry partner): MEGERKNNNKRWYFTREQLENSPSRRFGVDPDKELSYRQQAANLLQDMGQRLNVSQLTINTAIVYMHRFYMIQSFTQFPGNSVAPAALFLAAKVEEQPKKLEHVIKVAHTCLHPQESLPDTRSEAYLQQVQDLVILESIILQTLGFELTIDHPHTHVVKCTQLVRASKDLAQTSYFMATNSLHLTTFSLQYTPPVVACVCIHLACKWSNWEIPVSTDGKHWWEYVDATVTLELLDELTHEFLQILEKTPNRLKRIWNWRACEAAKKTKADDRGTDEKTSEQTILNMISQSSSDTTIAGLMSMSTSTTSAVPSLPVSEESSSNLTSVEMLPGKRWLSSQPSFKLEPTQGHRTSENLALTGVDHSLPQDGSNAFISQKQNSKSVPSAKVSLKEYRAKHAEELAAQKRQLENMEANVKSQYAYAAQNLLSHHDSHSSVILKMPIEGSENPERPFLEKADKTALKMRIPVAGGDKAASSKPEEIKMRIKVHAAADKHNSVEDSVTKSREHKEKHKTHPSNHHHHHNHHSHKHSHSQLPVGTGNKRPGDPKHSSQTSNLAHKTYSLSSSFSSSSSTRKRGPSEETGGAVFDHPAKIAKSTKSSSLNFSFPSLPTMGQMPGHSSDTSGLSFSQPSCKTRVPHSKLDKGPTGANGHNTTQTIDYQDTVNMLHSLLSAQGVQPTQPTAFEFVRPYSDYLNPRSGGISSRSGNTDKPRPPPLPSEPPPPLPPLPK
T3 sequence (Q14004 whole entry): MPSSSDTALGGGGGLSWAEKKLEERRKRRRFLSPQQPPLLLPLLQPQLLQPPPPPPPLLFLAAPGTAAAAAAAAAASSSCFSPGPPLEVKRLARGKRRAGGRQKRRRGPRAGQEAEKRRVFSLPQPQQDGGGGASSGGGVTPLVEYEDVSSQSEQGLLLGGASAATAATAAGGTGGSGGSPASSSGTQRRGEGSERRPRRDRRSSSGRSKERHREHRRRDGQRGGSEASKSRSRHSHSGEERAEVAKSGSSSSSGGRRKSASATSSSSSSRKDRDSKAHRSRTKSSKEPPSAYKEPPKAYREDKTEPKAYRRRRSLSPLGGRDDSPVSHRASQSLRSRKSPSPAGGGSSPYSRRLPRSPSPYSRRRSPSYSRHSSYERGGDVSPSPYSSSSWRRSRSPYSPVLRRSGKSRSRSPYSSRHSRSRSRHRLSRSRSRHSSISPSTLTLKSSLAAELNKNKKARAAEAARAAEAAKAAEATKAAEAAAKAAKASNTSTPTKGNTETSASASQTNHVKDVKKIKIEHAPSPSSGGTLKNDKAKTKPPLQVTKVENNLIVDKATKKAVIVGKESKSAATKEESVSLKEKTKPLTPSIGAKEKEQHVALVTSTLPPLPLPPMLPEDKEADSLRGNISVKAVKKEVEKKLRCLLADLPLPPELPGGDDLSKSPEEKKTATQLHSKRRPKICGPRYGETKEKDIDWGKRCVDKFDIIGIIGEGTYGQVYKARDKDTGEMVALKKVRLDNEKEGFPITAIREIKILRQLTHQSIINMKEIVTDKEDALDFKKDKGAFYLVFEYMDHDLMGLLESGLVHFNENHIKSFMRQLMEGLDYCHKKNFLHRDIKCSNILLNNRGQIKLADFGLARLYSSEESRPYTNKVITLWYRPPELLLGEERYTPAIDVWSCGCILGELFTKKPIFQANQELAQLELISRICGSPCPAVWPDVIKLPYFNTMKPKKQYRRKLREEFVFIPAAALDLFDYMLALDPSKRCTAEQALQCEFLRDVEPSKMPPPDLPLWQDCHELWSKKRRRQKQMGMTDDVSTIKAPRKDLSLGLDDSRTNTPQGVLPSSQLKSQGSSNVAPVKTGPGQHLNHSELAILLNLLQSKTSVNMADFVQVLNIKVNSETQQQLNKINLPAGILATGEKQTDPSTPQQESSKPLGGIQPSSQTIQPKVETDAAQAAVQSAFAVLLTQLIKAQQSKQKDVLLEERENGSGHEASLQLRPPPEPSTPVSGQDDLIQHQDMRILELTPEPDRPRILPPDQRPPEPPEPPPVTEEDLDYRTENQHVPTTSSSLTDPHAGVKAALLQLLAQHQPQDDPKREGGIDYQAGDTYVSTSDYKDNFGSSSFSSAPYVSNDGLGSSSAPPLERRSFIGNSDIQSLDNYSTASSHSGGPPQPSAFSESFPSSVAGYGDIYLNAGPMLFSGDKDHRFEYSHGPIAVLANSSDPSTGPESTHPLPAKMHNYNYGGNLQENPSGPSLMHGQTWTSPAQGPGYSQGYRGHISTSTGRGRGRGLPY
T3 sequence (O75909 whole entry partner): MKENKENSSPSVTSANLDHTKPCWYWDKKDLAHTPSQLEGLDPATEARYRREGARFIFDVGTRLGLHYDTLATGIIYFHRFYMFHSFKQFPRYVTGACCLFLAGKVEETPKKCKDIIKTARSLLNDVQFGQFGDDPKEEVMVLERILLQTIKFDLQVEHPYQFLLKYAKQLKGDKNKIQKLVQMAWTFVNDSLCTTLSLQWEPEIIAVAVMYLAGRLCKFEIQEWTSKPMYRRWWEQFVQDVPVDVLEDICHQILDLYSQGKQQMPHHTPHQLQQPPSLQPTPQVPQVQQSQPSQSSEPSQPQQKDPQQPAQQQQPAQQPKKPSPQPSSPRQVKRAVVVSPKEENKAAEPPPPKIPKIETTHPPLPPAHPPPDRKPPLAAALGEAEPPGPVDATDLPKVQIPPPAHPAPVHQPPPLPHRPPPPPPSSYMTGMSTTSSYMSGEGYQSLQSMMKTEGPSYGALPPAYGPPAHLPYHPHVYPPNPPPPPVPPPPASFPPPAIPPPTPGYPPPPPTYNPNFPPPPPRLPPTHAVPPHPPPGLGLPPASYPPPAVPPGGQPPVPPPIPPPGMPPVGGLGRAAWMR
T3 sequence (Q16531 2-1140 limits assumed): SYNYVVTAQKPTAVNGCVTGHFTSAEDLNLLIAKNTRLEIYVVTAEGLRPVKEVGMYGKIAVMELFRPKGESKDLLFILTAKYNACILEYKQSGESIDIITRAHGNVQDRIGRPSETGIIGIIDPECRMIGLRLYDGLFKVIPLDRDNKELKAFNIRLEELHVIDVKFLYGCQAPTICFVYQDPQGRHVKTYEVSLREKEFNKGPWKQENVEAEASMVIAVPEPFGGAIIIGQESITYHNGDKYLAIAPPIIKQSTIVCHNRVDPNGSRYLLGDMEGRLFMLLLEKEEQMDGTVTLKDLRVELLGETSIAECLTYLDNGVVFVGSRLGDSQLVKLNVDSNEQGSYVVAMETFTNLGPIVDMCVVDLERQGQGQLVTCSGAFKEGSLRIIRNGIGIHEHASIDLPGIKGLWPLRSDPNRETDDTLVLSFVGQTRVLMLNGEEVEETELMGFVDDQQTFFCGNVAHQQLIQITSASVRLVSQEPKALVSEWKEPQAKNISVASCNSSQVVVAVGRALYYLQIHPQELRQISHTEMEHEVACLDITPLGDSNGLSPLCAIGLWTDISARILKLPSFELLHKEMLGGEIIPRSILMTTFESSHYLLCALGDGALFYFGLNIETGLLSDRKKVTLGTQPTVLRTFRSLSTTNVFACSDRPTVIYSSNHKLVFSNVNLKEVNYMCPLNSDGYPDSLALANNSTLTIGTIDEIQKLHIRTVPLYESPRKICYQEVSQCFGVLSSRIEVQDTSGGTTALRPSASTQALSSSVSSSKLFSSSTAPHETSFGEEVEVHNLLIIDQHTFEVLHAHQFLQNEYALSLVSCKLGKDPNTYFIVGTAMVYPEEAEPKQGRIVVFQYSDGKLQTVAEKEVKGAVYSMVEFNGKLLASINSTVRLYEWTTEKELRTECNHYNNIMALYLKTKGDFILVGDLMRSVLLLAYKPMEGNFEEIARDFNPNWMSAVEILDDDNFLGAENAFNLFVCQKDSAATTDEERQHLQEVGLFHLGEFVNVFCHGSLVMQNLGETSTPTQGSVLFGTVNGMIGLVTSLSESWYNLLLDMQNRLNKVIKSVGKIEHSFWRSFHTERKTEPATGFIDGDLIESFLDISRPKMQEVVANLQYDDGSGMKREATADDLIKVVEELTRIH

SMILES: Cc1cccc(Nc2nc(CC(=O)Nc3ncc(C)s3)cs2)n1 [HQ461]
- EC50 (HEK293T cells; Homo sapiens, HEK-293T, HEK293T viability, 72 h, compound alone, read-out: Cellular assays EC50): 1.3 µM
- Toxicity rescue (HEK293T cells; MLN4924-mediated cytotoxicity rescue, 10 µM used where n.d.): 159%
- IC50 (CDK9–cyclin T; Lanthascreen, read-out: CDK9 inhibition): > 10000 nM
- IC50 (CDK9–cyclin T; Supplementary Table 2, read-out: Lanthascreen IC50 [nM] CDK9): > 10000 nM
- Lanthascreen TR-FRET signal (raw ratio), sheet CDK9 (CDK9–cyclin T; compound 0.038147 nM, second titration set (r13)): 0.01409 and 0.01416
- Lanthascreen TR-FRET signal (raw ratio), sheet CDK9 (CDK9–cyclin T; compound 0.152588 nM, second titration set (r13)): 0.01468 and 0.01413
- Lanthascreen TR-FRET signal (raw ratio), sheet CDK9 (CDK9–cyclin T; compound 0.610352 nM, second titration set (r13)): 0.01464 and 0.01471
- Lanthascreen TR-FRET signal (raw ratio), sheet CDK9 (CDK9–cyclin T; compound 1.02544 nM, first titration set (r1)): 0.013 and 0.01376
- Lanthascreen TR-FRET signal (raw ratio), sheet CDK9 (CDK9–cyclin T; compound 3.15521 nM, first titration set (r1)): 0.01501 and 0.01445
- Lanthascreen TR-FRET signal (raw ratio), sheet CDK9 (CDK9–cyclin T; compound 9.46563 nM, first titration set (r1)): 0.01436 and 0.01453
- Lanthascreen TR-FRET signal (raw ratio), sheet CDK9 (CDK9–cyclin T; compound 9.76563 nM, second titration set (r13)): 0.01408 and 0.01448
- Lanthascreen TR-FRET signal (raw ratio), sheet CDK9 (CDK9–cyclin T; compound 31.5521 nM, first titration set (r1)): 0.01309 and 0.01275
- Lanthascreen TR-FRET signal (raw ratio), sheet CDK9 (CDK9–cyclin T; compound 39.0625 nM, second titration set (r13)): 0.01393 and 0.01389
- Lanthascreen TR-FRET signal (raw ratio), sheet CDK9 (CDK9–cyclin T; compound 99.3891 nM, first titration set (r1)): 0.01397 and 0.01502
- Lanthascreen TR-FRET signal (raw ratio), sheet CDK9 (CDK9–cyclin T; compound 156.25 nM, second titration set (r13)): 0.01402 and 0.0137
- Lanthascreen TR-FRET signal (raw ratio), sheet CDK9 (CDK9–cyclin T; compound 315.521 nM, first titration set (r1)): 0.01247 and 0.01162
- Lanthascreen TR-FRET signal (raw ratio), sheet CDK9 (CDK9–cyclin T; compound 625 nM, second titration set (r13)): 0.01303 and 0.01336
- Lanthascreen TR-FRET signal (raw ratio), sheet CDK9 (CDK9–cyclin T; compound 2500 nM, second titration set (r13)): 0.01244 and 0.01203
- Lanthascreen TR-FRET signal (raw ratio), sheet CDK9 (CDK9–cyclin T; compound 3155.21 nM, first titration set (r1)): 0.007103 and 0.007563
- Lanthascreen TR-FRET signal (raw ratio), sheet CDK9 (CDK9–cyclin T; compound 10000 nM, second titration set (r13)): 0.01094 and 0.01086
- Lanthascreen TR-FRET signal (raw ratio), sheet CDK9 (CDK9–cyclin T; compound 10002 nM, first titration set (r1)): 0.01268 and 0.01049
- Lanthascreen signal, sheet CDK2 (CDK2–cyclin A; Compound 0.038147 nM, experiment r13-r23): 0.01269 and 0.01279
- Lanthascreen signal, sheet CDK2 (CDK2–cyclin A; Compound 0.152588 nM, experiment r13-r23): 0.01374 and 0.01273
- Lanthascreen signal, sheet CDK2 (CDK2–cyclin A; Compound 0.610352 nM, experiment r13-r23): 0.01372 and 0.01331
- Lanthascreen signal, sheet CDK2 (CDK2–cyclin A; Compound 1.02544 nM, experiment r1-r11): 0.009631 and 0.01041
- Lanthascreen signal, sheet CDK2 (CDK2–cyclin A; Compound 3.15521 nM, experiment r1-r11): 0.01056 and 0.008974
- Lanthascreen signal, sheet CDK2 (CDK2–cyclin A; Compound 9.46563 nM, experiment r1-r11): 0.009472 and 0.0097
- Lanthascreen signal, sheet CDK2 (CDK2–cyclin A; Compound 9.76563 nM, experiment r13-r23): 0.01395 and 0.01369
- Lanthascreen signal, sheet CDK2 (CDK2–cyclin A; Compound 31.5521 nM, experiment r1-r11): 0.0114 and 0.01012
- Lanthascreen signal, sheet CDK2 (CDK2–cyclin A; Compound 39.0625 nM, experiment r13-r23): 0.01257 and 0.0126
- Lanthascreen signal, sheet CDK2 (CDK2–cyclin A; Compound 99.3891 nM, experiment r1-r11): 0.01033 and 0.009406
- Lanthascreen signal, sheet CDK2 (CDK2–cyclin A; Compound 156.25 nM, experiment r13-r23): 0.01318 and 0.01113
- Lanthascreen signal, sheet CDK2 (CDK2–cyclin A; Compound 315.521 nM, experiment r1-r11): 0.009414 and 0.009861
- Lanthascreen signal, sheet CDK2 (CDK2–cyclin A; Compound 625 nM, experiment r13-r23): 0.01295 and 0.0131
- Lanthascreen signal, sheet CDK2 (CDK2–cyclin A; Compound 2500 nM, experiment r13-r23): 0.01303 and 0.01312
- Lanthascreen signal, sheet CDK2 (CDK2–cyclin A; Compound 3155.21 nM, experiment r1-r11): 0.008384 and 0.008441
- Lanthascreen signal, sheet CDK2 (CDK2–cyclin A; Compound 10000 nM, experiment r13-r23): 0.01252 and 0.01202
- Lanthascreen signal, sheet CDK2 (CDK2–cyclin A; Compound 10002 nM, experiment r1-r11): 0.01042 and 0.01107
- IC50 (CDK2–cyclin A; Lanthascreen, read-out: CDK2 inhibition): > 10000 nM
- IC50 (CDK2–cyclin A; Supplementary Table 2, read-out: Lanthascreen IC50 [nM] CDK2): > 10000 nM
- cyclin K abundance (label-free MS) (cyclin K; individual replicates, sheet EDF7): 622.336 and 691.814
- cyclin K abundance (label-free MS) (cyclin K; [1]): 622.336 and 691.814
- CCNK peptide count (DMSO-normalised) (cyclin K; [2]): 0.34 and 0.3848
- average CCNK peptide count (cyclin K; sheet EDF7): 657.075
- CDK13 peptide count (CDK13; [1]): 467.381 and 369.821
- CDK13 peptide count (DMSO-normalised) (CDK13; [2]): 0.6953 and 0.5683
